“Also recorded” adds a separate entry of the source.
Experiments:
[1] = test system: Human cardiac fibroblasts (HCFs); assay: Myofibroblast marker expression in human cardiac fibroblasts (RT-PCR, western blot, immunofluorescence); type: cell-based
Experimental: Human cardiac fibroblasts (HCFs) (PromoCell) are grown in Fibroblast Growth Medium 3 Supplement Pack (PromoCell) in an environment at 37° C. with controlled atmosphere. The HCFs are grown between passages 3 and 7.
To perform the stimulations, the fibroblasts are seeded at a density of 30 000 cells/cm^2 in complete culture medium. After 24 hours of adhesion, the cell culture medium is replaced with medium not containing growth factor (minimal medium) for 4 hours.
Total mRNA is extracted using a purification kit (RNeasy Mini, Qiagen) then eluted in 30 μL of RNase-free water. The amount of RNA is measured at 260 nm using a spectrophotometer (NanoDrop). The RNA is then converted to cDNA using 200 ng of RNA and according to the same protocol as the tissue RNA. The gene expression study is performed by real-time PCR from 10 ng of cDNA (Table 4).
The cells are lysed at 4° C. in a buffer composed of 10 mMTris-HCl (pH 8), 1 mM EDTA, 150 mMNaCl, 10% NP40, containing a protease inhibitor cocktail (Pierce, Thermo Scientific). The cell lysate obtained is centrifuged at 4° C. and 15000 g for 10 minutes. The supernatant containing solubilized proteins is collected and the amount of proteins determined using a calibration curve of bovine serum albumin (BSA) prepared from a 1 mg/mL BSA solution diluted in the lysis buffer used during sample preparation.
The samples are then used in western blot experiments. To that end, an aliquot containing 30 μg of proteins is taken up in 4× Laemmli buffer containing a reducing agent (Invitrogen) and then heated for 10 minutes at 75° C. before being deposited on an electrophoresis gel (NuPAGE 4-12% Bis-Tris Gel, Invitrogen). After migration of the samples, the proteins are dry-transferred to a nitrocellulose membrane (iBlot 2, Invitrogen). The membrane is blocked for 45 minutes with a Tris buffer containing 0.1% Tween 20 (TBS-T) and 4% BSA. The primary antibody (Table 5) diluted in TBS-T is hybridized for 12 hours at 4° C. and then rinsed for 3×10 minutes with TBS-T. The HRP-coupled secondary antibody (TBS-T) is hybridized for 1 hour. After rinsing, HRP activity is detected using a chemiluminescent substrate (ECL, Pierce). An antibody directed against a normalizing protein (β-tubulin), the expression of which is not modified by the experimental conditions, makes it possible to normalize the quantification and then to express the results semi-quantitatively (% control). Emitted light is captured with a camera (G:BOX). The proteins of interest are visualized as black bands on a white background. The signal thus obtained is quantified by densitometry (Image Lab Software version 4.1) (Table 5).
The cells are fixed for 5 minutes in 70° ethanol at 4° C. and then rinsed with PBS. After 1 hour of blocking in a PBS solution containing 5% BSA, the primary antibody (anti-α-SMA, Dako-0851) diluted 1/50 and then the secondary antibody (anti-mouse antibody) coupled to a fluorescent molecule (Alexa Fluor 488) are incubated for 1.5 hours. Rinses with PBS are performed between each step. The cells are mounted in an aqueous medium containing a nuclear stain (ProLongMountant with DAPI, Invitrogen) before being observed under a fluorescence microscope.
Modulation of α-SMA expression was examined in response to stimulation of HCFs by 50 ng/mL of CD146 for 48 hours.

[2] = test system: chorio-allantoic membrane of the chick embryo; assay: Chorio-allantoic membrane assay; type: in vivo; settings: 25 ng/ml or 50 ng/ml, 48 h
Experimental: D: Yolk sac membrane assays were performed in the presence of 25 ng/ml or 50 ng/ml I5-13-sCD146 and I10-sCD146 for 48 h and compared to control. Representative pictures of 4 different experiments are given.
The chorio-allantoic membrane of the chick embryo assay (CAM) was performed using a previously described protocol (Beckers et al., 1997).
The chorio-allantoic membrane of the chick embryo assay (CAM) was surgically removed and fixed in 10% buffered formaldehyde for 10 hours, dehydrated in graded alcohol, cleared in xylene and embedded in paraffin. 5 μm thick sections were cut in a plane parallel to the surface of the CAM and stained by hematoxylin-eosin which was observed under a light photomicroscope.

[3] = test system: b-catenin/TCF transcription activity; assay: b-catenin/TCF transcription assay (luciferase) in Mouse Embryonic Fibroblasts; type: cell-based; settings: MEF from CD146 KO mice treated with bleomycin
Experimental: B: Activation of canonical Wnt signalling (b-catenin/TCF transcription activity; Luciferase assay) was estimated in Mouse Embryonic Fibroblasts (MEF) from CD146 KO and WT mice. MEF were treated or not with bleomycin in the presence or absence of shed sCD146, I5-13-sCD146 or I10-sCD146. Results are the mean values +/−SEM of 5 independent experiments.
HUVEC were obtained as previously described and were cultured in EGM2 medium (Kaspi et al., 2017). MEF (Mouse Embryonic Fibroblasts) were isolated from day 13. Embryos from CD146 KO or WT mice were isolated and cultured as previously described (Xu J., 2005).
Luciferase assay was performed as previously described (Kaspi et al., 2017).

miR21 = assay: In vitro induction of miR21; type: cell-based
[4] = test system: renal and cardiac endothelial cells; assay: In vitro endothelial-mesenchymal transition; type: cell-based
ECFC = assay: Permeability of ECFC monolayer to dextran-FITC; type: cell-based, human; settings: treatment with recombinant proteins
Experimental: D: ECFC were transfected with siRNA targeting ADAM10 or Tace and with a control siRNA (C). The permeability of the ECFC monolayer grown on semi-permeable filters was determined using dextran-FITC. Results are the mean values+/−SEM of 3 experiments.
E: ECFC were transfected with plasmid vectors encoding ADAM10 (p-ADAM10) or Tace (p-Tace) and with a control plasmid vector (C). The permeability of the ECFC monolayer grown on semi-permeable filters was determined using dextran-FITC. Results are the mean values+/−SEM of 3 experiments. *: P<0.05, **: P<0.01, ***: P<0.001, experimental vs Control.
ECFC were seeded at 60,000 cells per well on membrane inserts (porosity 1 μm) of a 24-multiwell double chamber system (Multiwell Insert System, BD Biosciences, Le Pont de Claix, France) after siRNA transfection or not. Confluent endothelial monolayers were then incubated for 24 h in EGM-2 medium in the presence or absence of the different forms of sCD146. The FITC-dextran (sigma) was added at the apical surface of the cells and was allowed to migrate for 1.5 h at 37° C. Basolateral FITC-dextran was then measured using a Cytofluor Series 4000 Fluorescence (PerSeptiveBiosystems, Framingham, MA).

Row | Molecule | α-SMA network (indirect immunofluorescence) ([1]; 50 ng/mL) | CD146 expression ([1]; 50 ng/mL of CD146s, first results n=2) [fold] | α-SMA protein expression level (western blot) ([1]; 50 ng/mL, 48 hours) [fold] | α-SMA RNA expression level (overexpression) ([1]; 50 ng/mL, 48 hours, n=4) [fold] | TGF-β expression at the RNA level ([1]; HCFs stimulated by CD146s, preliminary) | expression of RNAs encoding fibronectin and type I collagen ([1]; semiquantitative RT-PCR, comparable to TGF-β stimulation) | vascularisation in chorio-allantoic membrane assay [2] | b-catenin/TCF transcription activity [3] | miR21 induction (miR21) | endothelial-mesenchymal transition [4] | transendothelial permeability (ECFC)
1 | sCD146: recombinant human soluble form of CD146 corresponding to the shed sCD146, obtained from Biocytex | establishment of a smooth muscle actin network | 2 | 2.5 | 2.5 | increase in TGF-β expression; also recorded: able to increase TGF-β expression | increase in synthesis of fibronectin and of type I collagen | increased vascularisation | decreased b-catenin/TCF transcription activity | significantly induces in vitro miR21 | induces in vitro an endothelial-mesenchymal transition | –
2 | rh-I10-sCD146: recombinant spliced variant of soluble CD146 containing intron 10, SEQ ID NO: 9 (protein, listed as Homo sapiens) MGLPRLVCAFLLAACCCCPRVAGVPGEAEQPAPELVEVEVGSTALLKCGLSQSQGNLSHVDWFSVHKEKRTLIFRVRQGQGQSEPGEYEQRLSLQDRGATLALTQVTPQDERIFLCQGKRPRSQEYRIQLRVYKAPEEPNIQVNPLGIPVNSKEPEEVATCVGRNGYPIPQVIWYKNGRPLKEEKNRVHIQSSQTVESSGLYTLQSILKAQLVKEDKDAQFYCELNYRLPSGNHMKESREVTVPVFYPTEKVWLEVEPVGMLKEGDRVEIRCLADGNPPPHFSISKQNPSTREAEEETTNDNGVLVLEPARKEHSGRYECQGLDLDTMISLLSEPQELLVNYVSDVRVSPAAPERQEGSSLTLTCEAESSQDLEFQWLREETGQVLERGPVLQLHDLKREAGGGYRCVASVPSIPGLNRTQLVNVAIFGEALPLGRDQVTPSGVVFKLFDKKPPAALGSSGAEGEAG | – | – | – | – | – | – | increased vascularisation | decreased b-catenin/TCF transcription activity | – | – | nor treatment with recombinant proteins corresponding to these variants modified transendothelial permeability
3 | rh-I5-13-sCD146: recombinant spliced variant of soluble CD146 containing introns 5 and 13, SEQ ID NO: 8 (protein, listed as Homo sapiens) MVYIVRQFLLYNVSGSVYLDQLIVLLTAKFSILRIAGSRVHHSPFSGHLDGCSFLSLQHSLHTSLDMSRHENVFLGLTLSSKSAGLKGFQLAFVPGLLQGTGGYLDGPLPTPVDNPRVGLEVGLRLSLPPLPPCPGVHIQSSQTVESSGLYTLQSILKAQLVKEDKDAQFYCELNYRLPSGNHMKESREVTVPVFYPTEKVWLEVEPVGMLKEGDRVEIRCLADGNPPPHFSISKQNPSTREAEEETTNDNGVLVLEPARKEHSGRYECQGLDLDTMISLLSEPQELLVNYVSDVRVSPAAPERQEGSSLTLTCEAESSQDLEFQWLREETGQVLERGPVLQLHDLKREAGGGYRCVASVPSIPGLNRTQLVNVAIFGPPWMAFKERKVWVKENMVLNLSCEASGHPRPTISWNVNGTASEQDQDPQRVLSTLNVLVTPELLETGVECTASNDLGKNTSILFLELVNLTTLTPDSNTTTGLSTSTASPHTRANSTSTGKPGLAREQGCARASFLPCPSPESPVQKGE | – | – | – | – | – | – | increased vascularisation | increased it | – | – | nor treatment with recombinant proteins corresponding to these variants modified transendothelial permeability

From patent publication US12411143B2, “CD146 and uses thereof as a biomarker and as a therapeutic target in the diagnosis and treatment of fibrosis” (ASSISTANCE PUBLIQUE HÔPITAUX DE MARSEILLE, priority 2018, dated 2025)
